Read-outs that look alike come from different tables or passages of the source.
Legend:
[1] = Precipitation of HP pyruvate with ethyl acetate and reconstitution in D2O (Example 9); type: physicochemical; settings: after EtOAc precipitation and reconstitution in water (D2O); 7.5 mM fluorinated catalyst, 50 mM DMSO, 20-30 mM pyruvate, 1.8 T
Procedure: Precipitation and redissolution of HP [1-^13C]pyruvate, which takes place in the same NMR tube where hyperpolarization, was performed (Schmidt et al., ACS Sensors, 7(11), 3430-3439 (2022)). The SABRE samples were prepared in CD3OD, using between 20 and 30 mM sodium [1-^13C]pyruvate, 7.5 mM fluorinated SABRE catalyst, and 50 mM dimethyl sulfoxide (DMSO), as described in Examples 6 and 7. 100 μL of this solution was transferred into 5 mm NMR tube and exposed to the SABRE-SHEATH hyperpolarization conditions with the same set-up and optimum conditions described in Examples 6 and 7. The solution was located inside a 3-layer mu-metal of 3″ I.D. and 9″ depth to shield external magnetic fields, combined with a custom-made solenoid to generate a static magnetic field B0 of 0.4 μT. The NMR tubes were pressurized (110 psi, i.e., approximately 8 bar total pressure) with p-H2 bubbling through the solution at a flow of 90 scc/m to activate the catalyst and to ^13C-hyperpolarize the sodium [1-^13C]pyruvate solution. Activation of the catalyst took place for 15 min at ambient temperature and magnetic field. For polarization build-up, the sample was placed in the static magnetic field (typically about 0.4 μT) and a water bath to regulate the reaction temperature at 0° C. After polarization, the NMR tube was rapidly transferred inside the NMR spectrometer at 1.8 T and kept at room temperature. […]

[2] = type: physicochemical
Source text: Parahydrogen was generated using a Gas-Delivery Manifold. Ultra-high-purity hydrogen gas (Airgas) was fed into a ParaHydrogen flow cryostat (Xeus technology LTD) and enriched to about 50% parahydrogen in the presence of a spin-exchange catalyst (Fe2O3) at liquid nitrogen temperature (77K). […] The entire pH2 line was pressurized to 100 psi.
The magnetic shield condition was as follows. […] The shield was degaussed using internal homebuilt coils driven by a Variac when necessary.
MR experiments were performed using a 1 T Magritek Spinsolve benchtop NMR spectrometer.
FIG. 6 depicts, in the top curve, a single-scan HP ^13C spectrum obtained for the hyperpolarized probe. […] Enhancement is ε˜9000 and polarization is about P(^13C)˜1%.
All experiments were performed with the solution containing fluorinated catalyst, co-ligand (phenyl trifluoromethyl sulfoxide) and [1-^13C]Pyruvate in 0.6 mL CD3OD. The ratio and concentration can be further adjusted to attain better enhancement and polarization. […] The experiments were performed at room temperature, ˜100 scc/m p-H2 flow rate and 96 PSI p-H2 overpressure. The parahydrogen used in this example came from a low-cost 50% p-H2 generator. Each experiment, the p-H2 bubbling was applied for ˜1 min, the sample was quickly transferred to the 1 T NMR spectrometer for detection and the sample was then returned to the mu-metal shield to continue p-H2 bubbling for the next experiment.

[3] = Re-use of the fluorous catalyst mixture for pyruvate hyperpolarization (Example 26); type: physicochemical; settings: re-used catalyst mixture from 4 days earlier, fresh 23 mM pyruvate and 47 mM DMSO in 0.2 mL CD3OD
Source text: The fluorous mixture containing the perfluorinated SABRE catalyst in NFBME and MeOD was re-used for further sodium [1-^13C]pyruvate hyperpolarization.

[4] = Biphasic extraction of hyperpolarized pyruvate into D2O from NFBME/MeOD (Example 26); type: physicochemical; settings: after addition of 400 μL D2O to NFBME/MeOD sample (emulsion, bound and free pyruvate), catalyst of Example 4, 1.8 T, room temperature
Procedure: The hyperpolarization procedure of Example 6 was repeated using a mixture of nonafluorobutyl methyl ether (NFBME) and deuterated methanol instead of only deuterated methanol.
After the hyperpolarization procedure was completed, the sample was rapidly removed from the 0.40 μT field and transferred inside the NMR spectrometer at 1.8 T at room temperature. The NMR sample was depressurized and 400 μL of D2O was added to the solution in order to drive the hyperpolarized sodium [1-^13C]pyruvate into the aqueous phase.

[5] = type: physicochemical; settings: 40 mM sodium [1-13C]pyruvate, 6.6 mM catalyst of Example 16, 50 mM DMSO, CD3OD, 0.4 μT, 5 °C, 110 psi, 90 scc/m, 1.8 T
Procedure: (§1) The SABRE samples were prepared in CD3OD, using 40 mM sodium [1-^13C]pyruvate, 6.6 mM perfluorinated SABRE catalyst of Example 16, and 50 mM dimethyl sulfoxide (DMSO), as described in Examples 6 and 7. The SABRE samples were exposed to the SABRE-SHEATH hyperpolarization conditions with the same set-up and optimum conditions described in Examples 6 and 7. The NMR tubes were pressurized (110 psi, i.e., approximately 8 bar total pressure) with p-H2 bubbling through the solution at a flow of 90 scc/m to activate the catalyst and to ^13C-hyperpolarize the sodium [1-^13C]pyruvate solution. Activation of the catalyst took place for about 15 minutes at ambient temperature and magnetic field. For polarization build-up, the sample was placed in the magnetic field (typically about 0.4 μT) and a water bath at 5° C. to regulate the reaction temperature. The spectrum was acquired immediately following manual sample transfer to a 1.8 T benchtop NMR after 5 seconds, and the results are set forth in the top spectrum of FIG. 16.

[6] = type: physicochemical; settings: 23 mM sodium [1-13C]pyruvate, 7.4 mM catalyst of Example 4, 46 mM DMSO, 0.2 mL NFBME + 0.2 mL MeOD, 90 scc/m, 110 PSI, 0.4 μT, 0 °C
[7] = Relaxation dynamics of hyperpolarized [1-13C]pyruvate in fluorous mixture (Example 25); type: physicochemical; settings: fluorous mixture NFBME/MeOD
Source text: (§2) In addition, the relaxation dynamics of the [1-^13C]pyruvate were also studied.
In addition, relaxation dynamics at earth field and 1.8 T are about the same as a non-fluorinated SABRE catalyst T1=9.0±1.9 s and 16.0±1.4 s, respectively.

[8] = type: physicochemical; settings: 20 mM sodium [1-13C]pyruvate, 7.6 mM catalyst shown in Scheme 4, 50 mM DMSO, CD3OD, 0.4 μT, 5 °C, 110 psi, 90 scc/m, 1.8 T
Procedure: as §1, with “20” for “40”, “7.6” for “6.6”, “shown in Scheme 4,” for “of Example 16,”, “17.” for “16.”

[9] = Relaxation dynamics of hyperpolarized [1-13C]pyruvate in methanol (Example 7); type: physicochemical
Source text: as §2
In addition, relaxation dynamics at earth field and 1.8 T are about the same as a non-fluorinated SABRE catalyst T1=28.9±1.6 s and 66.5±7 s, respectively.

[10] = Isolation of hyperpolarized pyruvate by D2O precipitation of the catalyst and filtration (Example 8); type: physicochemical; settings: 20% v/v D2O added, Oasis Prime HLB filter, 1.8 T NMR, procedure about 1.15 to 1.30 minutes
Procedure: The parahydrogen flow rate was established at 90 scc/m and pressurized to 8 bars, the mixing field was 0.4 μT, and the temperature was 0° C.
After the hyperpolarization procedure was completed, the sample was rapidly removed from the 0.40 μT field, depressurized, and 20% in volume (125 μL) of D2O was added to the solution to precipitate the perfluorinated SABRE catalyst.

[11] = Example 5 text: 8 mM fluorinated catalyst (Example 4), 16 mM PTFSO, 30 mM [1-13C]pyruvate, 0.6 mL CD3OD, room temperature, ~100 scc/m, 96 PSI, 50% p-H2, 1 T NMR
[12] = FIG. 6 legend: 30 mM sodium [1-13C]pyruvate, 42 mM PTFSO, 7.8 mM Ir-F-IMes, deuterated methanol, 55 s 50% p-H2 bubbling, BT=−0.7 μT, 1 T NMR

CC(=O)C(=O)O [[1-^13C]pyruvate, Sodium [1-^13C]-pyruvate]
13C signal enhancement ε [1]: ~9000 fold
P13C [1]: ~2.17%
13C signal enhancement ε [2, 11]: ~9000
polarization P(13C) [2, 11]: ~1%
13C signal enhancement ε [2, 12]: ~1250
polarization P(13C) [2, 12]: ~0.1%
13C signal enhancement ε [3]: ~3090 fold
P13C [3]: ~0.48%
13C signal enhancement ε [4]: ~10800 fold
P13C [4]: ~1.68%
13C signal enhancement ε [5]: ~16900 fold
P13C [5]: ~2.17%
13C signal enhancement ε [6]: ~38600 fold
P13C [6]: ~6.02%
T1 ([7]; 1.8 T): 16.0 ± 1.4 s
T1 ([7]; relaxation at 0.4 μT): 11.3 ± 1.3 s
13C signal enhancement ε [8]: ~19000 fold
P13C [8]: ~4.91%
T1 ([9]; catalyst of Example 4, 1.8 T): 66.5 ± 7 s
T1 ([9]; catalyst of Example 4, Earth's field): 28.9 ± 1.6 s
T1 ([9]; catalyst of Example 4, relaxation at 0.4 μT): 16.1 ± 0.9 s
HP 13C signal after catalyst precipitation and filtration [10]: no HP ^13C signal was observed in any sample
